The values below come from patent US8846066B2, “Methods and related compositions for reduction of fat and skin tightening” (The Regents of the University of California, priority 2004, dated 2014).

The subject of one series is porcine fat tissue. In words: MTS assay in fresh porcine fat specimens. To be noted: PBF or 5% solutions, 4 hours. In kind it is cell-based. The method, then:
To measure cell viability after detergent treatment, HaCaT human keratinocyte cells were cultured in DMEM (Dulbecco's modified Eagle's medium) supplemented with 10% fetal calf serum, penicillin, and streptomycin. […] Cell viability was determined by an absorbance spectrophotometer (at 490 nm) after 4 hour incubation with the assay at 37° C. To determine cell viability in fresh tissue, fat specimens were incubated for 4 hours in 24 well plates with stock reagents and the MTS assay. Tissue specimens were then visualized for color change and the amount of MTS in their supernatants was measured by absorbance (at 490 nm). All studies were performed in triplicate. Absorbance at 490 nm (OD 490) is proportional to the number of living cells in the culture.
Porcine tissue was obtained immediately after sacrifice, shaved, and placed on ice for a maximum of four hours before use. […] Calcein retention was determined by tissue fluorescence using purple (411 nm) light and visually observing the emitted green (500 nm) light using an emission filters.
Fresh porcine skin was used to determine if the effects of these detergent substances on cultured cells were similar in tissue. […] The difference in fat cell viability between the solutions was quantified by measuring the absorbance (at 490) of the supernatants collected from the treated fat specimens (FIG. 3b). […]
On the technique in general: Tetrazolium assays rely on reduction of a dye to a coloured formazan, in cell work by metabolically active cells.

The subject of series [1] is porcine skin (epidermis, dermis, subcutaneous tissue, muscle). The experiment in a line: Histology of full thickness porcine skin after injection. As to the method: Histology was performed by injecting stock reagent solutions (0.5 mL) into full thickness porcine skin at various levels (epidermis, dermis, and subcutaneous tissue) with 1.0 mL syringes and 30-gauge, 0.5 inch needles. Needle depth was visualized along the margin of the porcine tissue with the intent of saturating the target tissue. One hour after incubation with PBS at 37° C., multiple 5.0 mm biopsy specimens were obtained from the injected sites, each condition performed in triplicate. Tissue was fixed in formaldehyde, paraffin-embedded, and stained with hematoxylin-eosin. Specimens were evaluated by a board-certified dermatopathologist who was blinded to the treatment protocol.

The next series deals with adipocytes. The experiment in a line: Adipocyte survival on addition of PC to 4.75% DC. In kind it is cell-based. To be noted: 5% phosphatidylcholine added to 4.75% DC. As to the method:
FIG. 9 illustrates survival of adipocytes when phosphatidylcholine is added to 4.75% sodium deoxycholate solution. On y-axis, 1 represents 100% survival. All % concentrations are w/v %. Survival of the cells in the absence of DC and PC is on an average 0.113.

For “alkylaryl polyether alcohol [Triton, reference compound]”, the “fat cell viability (MTS purple dye, absorbance at 490)” value in the series on porcine fat tissue is reported as “comparable loss of purple dye”.

`CCCCCCCCCCCC[N+](C)(C)CC(=O)[O-]` [Empigen, lauryldimethylbetaine, reference compound]: in series [1], the “histologic changes in epidermis, dermis, adnexal structures” value is “loss of fibroblast nuclear staining and hyalinization of dermal collagen”.

Take phosphatidylcholine: in the series with adipocytes, the “effect of phosphatidylcholine on adipolysis” value is “inhibits adipolysis slightly”.
